The values below come from patent EP1057829A1, “Novel compounds and pharmaceutical compositions containing the same” (The Jordanian Pharmaceutical Manufacturing and Medical …, priority 1999, dated 2000).

Holding throughout (type): in vivo
In one data set the test system is male rats. The data set can be described thus: Penile erection of male rats after oral administration, observed for 2 h. Conditions: for ED50: Rattus norvegicus, 2 h, erectile response, ED50 values significantly different with a 95% confidence interval, read-out: Calculated ED50; for responding rats # / responding rats %: 10 rats tested, penile erection monitored during 2 h. On the procedure: The purpose of this study was to compare the biological activity of compound 7a with that of sildenafil. In particular, the respective ED50-value (ED=effective dose), erection episodes and penile erection indices of said compounds in the treatment of male rats were determined. The penile erection index is an established means of determining the erection promoting properties of a substance (see e.g. Ang, H.H., Sim, M.K., Pharm. Sci., 3, 117-119 (1997) and references cited therein).
In these experiments, the compounds 7a and sildenafil were administered to male rats orally. The doses used for both drugs were 0.0781, 0.1562, 0.3125 and 0.625 mg/kg body weight. Sildenafil was dissolved in distilled water, whereas 7a was dissolved in 1% HCl solution (aq). Control animals were administered with the vehicles only, i.e. distilled water or the 1% HCl solution. During the experiments, the rats were placed in glass cages for observation and had access to food and water. During 2 h after administration of the investigated compounds, the penile erection of the rats was monitored.

The subject of a further data set is rats. The data set can be described thus: Preliminary toxicity studies in rats. On the procedure:
(§1) Moreover, according to preliminary toxicity studies in rats, the compound 7a is tolerated up to a dose of about […] body weight without any detrimental effects. […] Thus, high doses of 7a provide a particularly efficient means for treatment of erectile dysfunction.

Data set [1] in a line: Preliminary toxicity studies in rats. Conditions: rat, in vivo, read-out: tolerated dose without any detrimental effects. On the procedure: as §1

By ED50 is commonly meant the midpoint of the dose-response relation.

With `CCCc1nn(C)c2c(=O)[nH]c(-c3cc(S(=O)(=O)N4CCN(C)CC4)cc4c3OCC4)nc12` [Compound 7a, 5-[2,3-dihydro-5-(4-methylpiperazin-1-ylsulfonyl)-7-benzofuryl]-1-methyl-3-propyl-6,7-dihydro-1H-pyrazolo[4,3-d]pyrimidin-7-one], in the data set with male rats (male rats), the ED50 is 0.247 mg/kg. Moreover, the “responding rats #” value in the data set with male rats (dose 0.0781 mg/kg) is given as 3; in the data set on male rats (dose 0.1562 mg/kg) it was 4; in the data set on male rats (dose 0.3125 mg/kg), 4; with male rats (dose 0.6250 mg/kg), 8. For the same compound, the responding rats % with male rats (dose 0.0781 mg/kg) worked out at 30%; with male rats (dose 0.1562 mg/kg), 40%; with male rats (dose 0.3125 mg/kg), 40%; with male rats (dose 0.6250 mg/kg) it was 80%. Further, the “total number of observed erection episodes” value with male rats (male rats, 0.0781-0.625 mg/kg, comparison with sildenafil (Fig. 1)) is “superior to sildenafil, especially at higher doses”. Further, the “calculated penile erection indices” value in the data set with male rats (male rats, 0.0781-0.625 mg/kg, comparison with sildenafil (Fig. 2)) is listed as “superior to sildenafil, especially at higher doses”. In the data set with rats, the toxicity and side-effects entry is “completely nontoxic and free from undesirable side-effects”. In addition, the NOAEL in data set [1] was approximately 0.35 mg/kg.
Take `CCCc1nn(C)c2c(=O)[nH]c(-c3cc(S(=O)(=O)N4CCN(C)CC4)ccc3OCC)nc12` [Sildenafil, sildenafil, reference compound]: the ED50 in the data set on male rats (male rats) was 0.284 mg/kg. Further, the “responding rats #” value in the data set on male rats (dose 0.0781 mg/kg) is 3; in the data set with male rats (dose 0.1562 mg/kg), 3; in the data set on male rats (dose 0.3125 mg/kg), 5; with male rats (dose 0.6250 mg/kg), 7. The responding rats % is on record as 30% with male rats (dose 0.0781 mg/kg), 30% with male rats (dose 0.1562 mg/kg), 50% with male rats (dose 0.3125 mg/kg) and 70% with male rats (dose 0.6250 mg/kg).
